Patent publication US12310975B2, “Modulators of BCL6 proteolysis and associated methods of use” (Arvinas Operations, Inc., priority 2019, dated 2025)
Where two headings read alike, the source gives them in different places.

Molecular target: BCL6 (Homo sapiens (Human), UniProt P41182)
Assay: Immunofluorescence high content imaging of BCL6 degradation in T47D cells
Assay type: cell-based
Settings: for DC50: class symbols A-D, read-out: EC50 (nM)*
Outline: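 Following a 3-day incubation with serially diluted bifunctional compounds (final top 0.1 or 1 μM), T47D cells were PFA-fixed and immunostained for BCL6. Nuclear BCL6 signal was captured on a high-content imager.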

SMILES | Dmax (T47D cells) [%] | IC50 (T47D cells) [nM] | also measured
CNC(=O)COc1cc2cc(Nc3nc(N4CCN(CC5(F)CCN(c6ccc(C(=O)NC7CCC(=O)NC7=O)c(OC)c6)CC5)CC4)ncc3Cl)ccc2n(C)c1=O (stereo not drawn) [compound 367, 4-[4-({4-[5-chloro-4-({1-methyl-3-[(methylcarbamoyl)methoxy]-2-oxo-1,2-dihydroquinolin-6-yl}amino)pyrimidin-2-yl]piperazin-1-yl}methyl)-4-fluoropiperidin-1-yl]-N-(2,6-dioxopiperidin-3-yl)-2-methoxybenzamide] | 50 to 70 | < 10 | 
CNC(=O)COc1cc2cc(Nc3nc(N4CCO[C@H](COc5ccc(C(=O)NC6CCC(=O)NC6=O)c(OC)c5)C4)ncc3Cl)ccc2n(C(C)C)c1=O (stereo partly drawn) [compound 351, 4-{[(2S)-4-[5-chloro-4-({3-[(methylcarbamoyl)methoxy]-2-oxo-1-(propan-2-yl)-1,2-dihydroquinolin-6-yl}amino)pyrimidin-2-yl]morpholin-2-yl]methoxy}-N-(2,6-dioxopiperidin-3-yl)-2-methoxybenzamide] | < 50 | 10 to 50 | 
CNC(=O)COc1cc2cc(Nc3nc(N4CCC(OCCOCCOCCOc5cc(-c6scnc6C)ccc5CNC(=O)[C@@H]5C[C@@H](O)CN5C(=O)[C@H](c5cc(C)no5)C(C)C)CC4)ncc3Cl)ccc2n(C)c1=O [compound 49, (2S,4R)-N-(2-(2-(2-(2-((1-(5-chloro-4-((1-methyl-3-(2-(methylamino)-2-oxoethoxy)-2-oxo-1,2-dihydroquinolin-6-yl)amino)pyrimidin-2-yl)piperidin-4-yl)oxy)ethoxy)ethoxy)ethoxy)-4-(4-methylthiazol-5-yl)benzyl)-4-hydroxy-1-((S)-3-methyl-2-(3-methylisoxazol-5-yl)butanoyl)pyrrolidine-2-carboxamide] |  |  | DC50: > 100 nM
CNC(=O)COc1cc2cc(Nc3nc(N4C[C@@H](C)N(CC5CCN(c6ccc(C(=O)NC7CCC(=O)NC7=O)c(F)c6)CC5)[C@@H](C)C4)ncc3Cl)ccc2n(C)c1=O (stereo partly drawn) [compound 284, 4-(4-{[(2R,6S)-4-[5-chloro-4-({1-methyl-3-[(methylcarbamoyl)methoxy]-2-oxo-1,2-dihydroquinolin-6-yl}amino)pyrimidin-2-yl]-2,6-dimethylpiperazin-1-yl]methyl}piperidin-1-yl)-N-(2,6-dioxopiperidin-3-yl)-2-fluorobenzamide] |  |  | IC50: 10 to 50 nM; Dmax (T47D): < 50%
CNC(=O)COc1cc2cc(Nc3nc(N4CCN(CC5CCN(C(=O)c6ccc(OC)c(N7CCC(=O)NC7=O)c6)CC5)CC4)ncc3Cl)ccc2n(C(C)C)c1=O [compound 401, 2-{[6-({5-chloro-2-[4-({1-[3-(2,4-dioxo-1,3-diazinan-1-yl)-4-methoxybenzoyl]piperidin-4-yl}methyl)piperazin-1-yl]pyrimidin-4-yl}amino)-2-oxo-1-(propan-2-yl)-1,2-dihydroquinolin-3-yl]oxy}-N-methylacetamide] | < 50 | < 10 | 
CNC(=O)COc1cc2cc(Nc3nc(N4CCN(CC5CCN(c6cccc(C(=O)NC7CCC(=O)NC7=O)c6OC)CC5)CC4)ncc3Cl)ccc2n(C)c1=O (stereo not drawn) [compound 325, 3-[4-({4-[5-chloro-4-({1-methyl-3-[(methylcarbamoyl)methoxy]-2-oxo-1,2-dihydroquinolin-6-yl}amino)pyrimidin-2-yl]piperazin-1-yl}methyl)piperidin-1-yl]-N-(2,6-dioxopiperidin-3-yl)-2-methoxybenzamide] | 50 to 70 | < 10 | 
CNC(=O)COc1cc2cc(Nc3nc(N4CCC(c5cccc(OCCOCCOCCOCCOc6ccc7c(c6)CN(C6CCC(=O)NC6=O)C7=O)c5)CC4)ncc3Cl)ccc2n(C)c1=O (stereo not drawn) [compound 88, 2-((6-((5-chloro-2-(4-(3-(2-(2-(2-(2-((2-(2,6-dioxopiperidin-3-yl)-1-oxoisoindolin-5-yl)oxy)ethoxy)ethoxy)ethoxy)ethoxy)phenyl)piperidin-1-yl)pyrimidin-4-yl)amino)-1-methyl-2-oxo-1,2-dihydroquinolin-3-yl)oxy)-N-methylacetamide] |  |  | DC50: 10 to 50 nM
